Values of other authors as cited in patent US9707273B2, “Peptides for use in the topical treatment of retinal neurodegenerative diseases, in particular in early stages of diabetic retinopathy and other retinal diseases in which neurodegeneration plays an essential role” (FUNDACIÓ HOSPITAL UNIVERSITARI VALL D'HEBRON—INSTITUT DE …, priority 2013, dated 2017).

Conditions: administered in the form of eye drops; Aiello et al. 2008

In the case of `Cc1cc(-c2cc(O)ccc2Cl)cc2nnc(Nc3ccc(OCCN4CCCC4)cc3)nc12` [TG100572, 4-chloro-3-(5-methyl-3-{[4-(2-pyrrolidin-I-ylethoxy)phenyl]amino}-1,2,4-benzotriazin-7-yl)phenol], the “reaching the target in the retina after eye drops” value is listed as “able to reach the target in the retina”.
